# Where two headings read alike, the source gives them in different places. Positions of bridges follow the written chain, without caps; N, C: chain ends. Non-standard residues stand in square brackets, D forms with d. Residues, ends and D or L forms follow the SMILES beside them. Nva = CCC[C@H](N)C(=O)O
# Tests used:
# hNav1.7 = hNav1.7 (Homo sapiens, UniProt Q15858); experiment: cell-based
# hNav1.5 = hNav1.5 (Homo sapiens, UniProt Q14524); experiment: cell-based
# hNav1.5, sequence (Q14524 whole entry, looked up): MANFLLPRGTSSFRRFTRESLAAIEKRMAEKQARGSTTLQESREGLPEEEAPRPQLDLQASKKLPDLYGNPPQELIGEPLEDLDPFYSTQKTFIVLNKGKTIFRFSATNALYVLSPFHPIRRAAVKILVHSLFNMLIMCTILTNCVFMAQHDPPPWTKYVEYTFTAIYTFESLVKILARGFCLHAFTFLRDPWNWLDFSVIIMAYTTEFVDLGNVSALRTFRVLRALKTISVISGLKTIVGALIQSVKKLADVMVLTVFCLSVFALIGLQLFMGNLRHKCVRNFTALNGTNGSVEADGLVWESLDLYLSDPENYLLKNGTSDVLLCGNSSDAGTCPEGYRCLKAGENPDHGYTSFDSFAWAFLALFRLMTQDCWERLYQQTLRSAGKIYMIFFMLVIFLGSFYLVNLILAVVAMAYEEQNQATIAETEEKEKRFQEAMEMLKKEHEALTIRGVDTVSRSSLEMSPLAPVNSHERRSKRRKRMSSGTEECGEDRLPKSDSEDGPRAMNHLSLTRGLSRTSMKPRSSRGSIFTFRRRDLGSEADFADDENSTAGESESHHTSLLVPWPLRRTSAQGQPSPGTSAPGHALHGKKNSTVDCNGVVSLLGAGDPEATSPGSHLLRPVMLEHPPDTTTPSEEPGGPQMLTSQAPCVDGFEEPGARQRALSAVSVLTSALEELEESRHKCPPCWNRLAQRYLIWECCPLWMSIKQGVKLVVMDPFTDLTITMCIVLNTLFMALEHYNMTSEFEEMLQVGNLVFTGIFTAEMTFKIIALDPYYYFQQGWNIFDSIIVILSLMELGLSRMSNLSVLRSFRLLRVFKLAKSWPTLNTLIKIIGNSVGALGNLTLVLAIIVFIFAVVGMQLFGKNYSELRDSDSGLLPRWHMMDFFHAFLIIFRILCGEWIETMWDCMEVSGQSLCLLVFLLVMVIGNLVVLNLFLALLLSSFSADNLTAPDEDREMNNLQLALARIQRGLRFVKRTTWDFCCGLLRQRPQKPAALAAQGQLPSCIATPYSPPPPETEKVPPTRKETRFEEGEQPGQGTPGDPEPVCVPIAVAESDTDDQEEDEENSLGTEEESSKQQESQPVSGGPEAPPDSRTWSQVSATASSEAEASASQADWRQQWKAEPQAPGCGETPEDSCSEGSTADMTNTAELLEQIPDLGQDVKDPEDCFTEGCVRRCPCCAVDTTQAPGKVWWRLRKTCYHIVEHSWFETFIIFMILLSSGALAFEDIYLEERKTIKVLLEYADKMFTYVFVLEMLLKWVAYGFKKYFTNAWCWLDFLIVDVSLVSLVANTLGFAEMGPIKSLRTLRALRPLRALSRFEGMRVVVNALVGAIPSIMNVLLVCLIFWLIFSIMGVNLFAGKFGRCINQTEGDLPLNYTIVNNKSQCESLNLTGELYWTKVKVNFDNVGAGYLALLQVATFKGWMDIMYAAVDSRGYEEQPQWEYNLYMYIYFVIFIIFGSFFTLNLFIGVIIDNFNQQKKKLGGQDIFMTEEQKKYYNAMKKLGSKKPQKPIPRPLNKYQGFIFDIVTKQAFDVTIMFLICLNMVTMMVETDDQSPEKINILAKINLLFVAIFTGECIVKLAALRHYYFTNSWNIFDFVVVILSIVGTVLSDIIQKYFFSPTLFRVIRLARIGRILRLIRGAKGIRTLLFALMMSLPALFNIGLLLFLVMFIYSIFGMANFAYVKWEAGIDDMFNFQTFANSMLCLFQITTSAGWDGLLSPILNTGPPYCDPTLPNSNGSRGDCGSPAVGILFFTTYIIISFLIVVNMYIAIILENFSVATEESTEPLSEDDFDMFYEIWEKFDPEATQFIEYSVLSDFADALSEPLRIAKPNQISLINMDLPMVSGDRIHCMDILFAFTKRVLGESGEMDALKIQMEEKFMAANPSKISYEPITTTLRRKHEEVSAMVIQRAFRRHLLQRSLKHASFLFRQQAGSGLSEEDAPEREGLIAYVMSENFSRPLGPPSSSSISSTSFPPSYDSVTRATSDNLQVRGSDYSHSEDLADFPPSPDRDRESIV
# hNav1.7, sequence (Q15858 whole entry, looked up): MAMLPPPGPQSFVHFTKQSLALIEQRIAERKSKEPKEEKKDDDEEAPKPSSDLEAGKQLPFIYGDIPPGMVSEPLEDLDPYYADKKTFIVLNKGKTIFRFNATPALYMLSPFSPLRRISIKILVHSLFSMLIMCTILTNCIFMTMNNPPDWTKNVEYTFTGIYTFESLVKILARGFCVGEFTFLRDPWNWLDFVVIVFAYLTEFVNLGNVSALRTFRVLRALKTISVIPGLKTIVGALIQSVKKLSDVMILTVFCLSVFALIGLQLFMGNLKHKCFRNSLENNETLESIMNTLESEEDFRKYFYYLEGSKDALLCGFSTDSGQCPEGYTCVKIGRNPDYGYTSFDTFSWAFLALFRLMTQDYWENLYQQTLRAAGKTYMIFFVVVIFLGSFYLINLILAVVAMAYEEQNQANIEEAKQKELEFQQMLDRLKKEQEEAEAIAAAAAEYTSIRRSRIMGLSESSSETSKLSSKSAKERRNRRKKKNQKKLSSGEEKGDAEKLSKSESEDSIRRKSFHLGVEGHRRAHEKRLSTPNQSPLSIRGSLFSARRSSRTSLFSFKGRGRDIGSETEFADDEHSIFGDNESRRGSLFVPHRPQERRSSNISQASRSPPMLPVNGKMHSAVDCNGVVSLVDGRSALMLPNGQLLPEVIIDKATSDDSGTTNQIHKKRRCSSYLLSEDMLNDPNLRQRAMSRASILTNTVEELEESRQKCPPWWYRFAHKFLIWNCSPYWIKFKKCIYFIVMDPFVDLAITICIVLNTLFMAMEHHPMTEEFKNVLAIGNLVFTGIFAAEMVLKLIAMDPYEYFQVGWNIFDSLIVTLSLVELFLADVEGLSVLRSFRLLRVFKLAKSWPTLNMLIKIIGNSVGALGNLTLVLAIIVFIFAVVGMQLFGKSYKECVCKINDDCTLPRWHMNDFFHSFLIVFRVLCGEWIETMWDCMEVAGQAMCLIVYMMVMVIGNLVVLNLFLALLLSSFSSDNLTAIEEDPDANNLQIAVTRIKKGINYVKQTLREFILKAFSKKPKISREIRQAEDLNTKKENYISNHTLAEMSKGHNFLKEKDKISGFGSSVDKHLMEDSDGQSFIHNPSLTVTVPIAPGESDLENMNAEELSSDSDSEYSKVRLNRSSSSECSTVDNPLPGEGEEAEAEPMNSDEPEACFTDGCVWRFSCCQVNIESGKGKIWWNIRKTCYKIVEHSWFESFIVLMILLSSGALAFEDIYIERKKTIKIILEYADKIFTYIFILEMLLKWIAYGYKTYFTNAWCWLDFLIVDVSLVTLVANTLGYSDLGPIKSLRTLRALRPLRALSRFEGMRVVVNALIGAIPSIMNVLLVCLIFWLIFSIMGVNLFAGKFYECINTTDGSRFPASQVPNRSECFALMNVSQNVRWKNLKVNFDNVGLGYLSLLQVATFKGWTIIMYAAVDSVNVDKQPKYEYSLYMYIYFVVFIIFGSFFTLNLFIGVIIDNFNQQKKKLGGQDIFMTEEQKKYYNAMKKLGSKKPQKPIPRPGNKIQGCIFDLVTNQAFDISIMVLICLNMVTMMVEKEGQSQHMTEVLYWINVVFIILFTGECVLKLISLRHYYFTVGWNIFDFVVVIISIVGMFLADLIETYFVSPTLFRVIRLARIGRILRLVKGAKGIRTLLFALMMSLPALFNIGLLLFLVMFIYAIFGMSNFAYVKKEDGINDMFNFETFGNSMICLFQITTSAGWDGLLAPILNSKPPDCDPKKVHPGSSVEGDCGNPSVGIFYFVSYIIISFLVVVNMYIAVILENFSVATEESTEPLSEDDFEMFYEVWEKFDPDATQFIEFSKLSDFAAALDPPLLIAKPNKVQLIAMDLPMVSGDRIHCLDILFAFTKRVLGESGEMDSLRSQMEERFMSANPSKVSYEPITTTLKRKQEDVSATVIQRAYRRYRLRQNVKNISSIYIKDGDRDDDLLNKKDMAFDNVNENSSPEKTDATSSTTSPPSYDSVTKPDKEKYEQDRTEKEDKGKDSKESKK
Compound,IC50 (hNav1.7; Nav1.7 Use IC50) [nM],IC50 (hNav1.5) [nM],IC50 (hNav1.7; read-out: Nav1.7 Use IC50) [nM]
"CC[C@H](C)[C@@H]1NC(=O)[C@@H]2CSSC[C@@H]3NC(=O)[C@H](C(C)C)NC(=O)[C@H](CC(C)C)NC(=O)[C@H](CC(N)=O)NC(=O)[C@@H]4CCCN4C(=O)[C@H](CCCNC(=N)N)NC(=O)[C@H](CSSC[C@H](NC(=O)[C@@H](N)CC(=O)O)C(=O)N[C@@H](CC(C)C)C(=O)NCC(=O)N[C@@H](CCSC)C(=O)N[C@@H](CC(C)C)C(=O)N[C@@H](CCCNC(=N)N)C(=O)N[C@@H](CCCCN)C(=O)N2)NC(=O)[C@H](CSSC[C@@H](C(=O)N[C@@H](CCCCN)C(=O)N[C@@H](Cc2ccc(O)cc2)C(=O)N[C@H](C(=O)N[C@@H](Cc2ccccc2)C(N)=O)C(C)C)NC(=O)[C@H](Cc2c[nH]c4ccccc24)NC(=O)[C@H](CCCCN)NC(=O)[C@H](Cc2c[nH]cn2)NC(=O)[C@H]([C@@H](C)O)NC(=O)[C@H](CCCNC(=N)N)NC(=O)[C@H](CO)NC3=O)NC(=O)[C@H](CCCCN)NC(=O)[C@H](CC(=O)O)NC(=O)[C@H](CC(N)=O)NC(=O)[C@H](CC(=O)O)NC(=O)[C@@H]2CCCN2C1=O [[Met5;Leu6]GpTx-1(1-34)] (H-DCLGMLRKCIPDNDKCCRPNLVCSRTHKWCKYVF-NH2; disulfide 2-17, 9-23, 16-30)",270,> 10000,
CC[C@H](C)[C@@H]1NC(=O)[C@@H]2CSSC[C@@H]3NC(=O)[C@H](C(C)C)NC(=O)[C@H](CC(C)C)NC(=O)[C@H](CC(N)=O)NC(=O)[C@@H]4CCCN4C(=O)[C@H](CCCNC(=N)N)NC(=O)[C@H](CSSC[C@H](NC(=O)[C@@H](N)CC(=O)O)C(=O)N[C@@H](CC(C)C)C(=O)NCC(=O)N(C)[C@@H](CC(C)C)C(=O)N[C@@H](CC(C)C)C(=O)N[C@@H](CCCNC(=N)N)C(=O)N[C@@H](CCCCN)C(=O)N2)NC(=O)[C@H](CSSC[C@@H](C(=O)N[C@@H](CCCCN)C(=O)N[C@@H](Cc2ccc(O)cc2)C(=O)N[C@H](C(=O)N[C@@H](Cc2ccccc2)C(N)=O)C(C)C)NC(=O)[C@H](Cc2c[nH]c4ccccc24)NC(=O)[C@H](CCCCN)NC(=O)[C@H](Cc2c[nH]cn2)NC(=O)[C@H]([C@@H](C)O)NC(=O)[C@H](CCCNC(=N)N)NC(=O)[C@H](CO)NC3=O)NC(=O)[C@H](CCCCN)NC(=O)[C@H](CC(=O)O)NC(=O)[C@H](CC(N)=O)NC(=O)[C@H](CC(=O)O)NC(=O)[C@@H]2CCCN2C1=O [[NMeLeu5;Leu6]GpTx-1(1-34)],12,> 10000,
CC[C@H](C)[C@@H]1NC(=O)[C@@H]2CSSC[C@@H]3NC(=O)[C@H](C(C)C)NC(=O)[C@H](CC(C)C)NC(=O)[C@H](CC(N)=O)NC(=O)[C@@H]4CCCN4C(=O)[C@H](CCCNC(=N)N)NC(=O)[C@H](CSSC[C@H](NC(=O)[C@@H](N)CC(=O)O)C(=O)N[C@@H](CC(C)C)C(=O)NCC(=O)N(C)[C@@H](Cc4ccccc4)C(=O)N[C@@H](CC(C)C)C(=O)N[C@@H](CCCNC(=N)N)C(=O)N[C@@H](CCCCN)C(=O)N2)NC(=O)[C@H](CSSC[C@@H](C(=O)N[C@@H](CCCCN)C(=O)N[C@@H](Cc2ccc(O)cc2)C(=O)N[C@H](C(=O)N[C@@H](Cc2ccccc2)C(N)=O)C(C)C)NC(=O)[C@H](Cc2c[nH]c4ccccc24)NC(=O)[C@H](CCCCN)NC(=O)[C@H](Cc2c[nH]cn2)NC(=O)[C@H]([C@@H](C)O)NC(=O)[C@H](CCCNC(=N)N)NC(=O)[C@H](CO)NC3=O)NC(=O)[C@H](CCCCN)NC(=O)[C@H](CC(=O)O)NC(=O)[C@H](CC(N)=O)NC(=O)[C@H](CC(=O)O)NC(=O)[C@@H]2CCCN2C1=O [[NMePhe5;Leu6]GpTx-1(1-34)],12,11300,
CC[C@H](C)[C@@H]1NC(=O)[C@@H]2CSSC[C@@H]3NC(=O)[C@H](C(C)C)NC(=O)[C@H](CC(C)C)NC(=O)[C@H](CC(N)=O)NC(=O)[C@@H]4CCCN4C(=O)[C@H](CCCNC(=N)N)NC(=O)[C@H](CSSC[C@H](NC(=O)[C@@H](N)CC(=O)O)C(=O)N[C@@H](CC(C)C)C(=O)NCC(=O)N(C)[C@@H](Cc4ccccc4)C(=O)N[C@@H](CCSC)C(=O)N[C@@H](CCCNC(=N)N)C(=O)N[C@@H](CCCCN)C(=O)N2)NC(=O)[C@H](CSSC[C@@H](C(=O)N[C@@H](CCCCN)C(=O)N[C@@H](Cc2ccc(O)cc2)C(=O)N[C@H](C(=O)N[C@@H](Cc2ccccc2)C(N)=O)C(C)C)NC(=O)[C@H](Cc2c[nH]c4ccccc24)NC(=O)[C@H](CCCCN)NC(=O)[C@H](Cc2c[nH]cn2)NC(=O)[C@H]([C@@H](C)O)NC(=O)[C@H](CCCNC(=N)N)NC(=O)[C@H](CO)NC3=O)NC(=O)[C@H](CCCCN)NC(=O)[C@H](CC(=O)O)NC(=O)[C@H](CC(N)=O)NC(=O)[C@H](CC(=O)O)NC(=O)[C@@H]2CCCN2C1=O [[NMePhe5]GpTx-1(1-34)],18,> 10000,
CC[C@H](C)[C@@H]1NC(=O)[C@@H]2CSSC[C@@H]3NC(=O)[C@H](C(C)C)NC(=O)[C@H](CC(C)C)NC(=O)[C@H](CC(N)=O)NC(=O)[C@@H]4CCCN4C(=O)[C@H](CCCNC(=N)N)NC(=O)[C@H](CSSC[C@H](NC(=O)[C@@H](N)CC(=O)O)C(=O)N[C@@H](CC(C)C)C(=O)NCC(=O)N(C)[C@@H](C(C)C)C(=O)N[C@@H](CC(C)C)C(=O)N[C@@H](CCCNC(=N)N)C(=O)N[C@@H](CCCCN)C(=O)N2)NC(=O)[C@H](CSSC[C@@H](C(=O)N[C@@H](CCCCN)C(=O)N[C@@H](Cc2ccc(O)cc2)C(=O)N[C@H](C(=O)N[C@@H](Cc2ccccc2)C(N)=O)C(C)C)NC(=O)[C@H](Cc2c[nH]c4ccccc24)NC(=O)[C@H](CCCCN)NC(=O)[C@H](Cc2c[nH]cn2)NC(=O)[C@H]([C@@H](C)O)NC(=O)[C@H](CCCNC(=N)N)NC(=O)[C@H](CO)NC3=O)NC(=O)[C@H](CCCCN)NC(=O)[C@H](CC(=O)O)NC(=O)[C@H](CC(N)=O)NC(=O)[C@H](CC(=O)O)NC(=O)[C@@H]2CCCN2C1=O [[NMeVal5;Leu6]GpTx-1(1-34)],50,> 10000,
"CCC[C@@H]1NC(=O)CNC(=O)[C@H](CC(C)C)NC(=O)[C@@H](NC(=O)[C@@H](N)CC(=O)O)CSSC[C@@H]2NC(=O)[C@@H]3CSSC[C@@H](C(=O)N[C@@H](CCCCN)C(=O)N[C@@H](Cc4ccc(O)cc4)C(=O)N[C@H](C(=O)N[C@@H](Cc4ccccc4)C(N)=O)C(C)C)NC(=O)[C@H](Cc4c[nH]c5ccccc45)NC(=O)[C@H](CCC(=O)O)NC(=O)[C@H](Cc4c[nH]cn4)NC(=O)[C@H]([C@@H](C)O)NC(=O)[C@H](CCCNC(=N)N)NC(=O)[C@H](CO)NC(=O)[C@H](CSSC[C@H](NC(=O)[C@H](CCCCN)NC(=O)[C@H](CCCNC(=N)N)NC(=O)[C@H](CCSC)NC1=O)C(=O)N[C@@H]([C@@H](C)CC)C(=O)N1CCC[C@H]1C(=O)N[C@@H](CC(=O)O)C(=O)N[C@@H](CC(N)=O)C(=O)N[C@@H](CC(=O)O)C(=O)N[C@@H](CCCCN)C(=O)N3)NC(=O)[C@H](C(C)C)NC(=O)[C@H](CC(C)C)NC(=O)[C@H](CC(N)=O)NC(=O)[C@@H]1CCCN1C(=O)[C@H](CCCNC(=N)N)NC2=O [[Nva5;Glu28]GpTx-1(1-34)] (H-DCLG[Nva]MRKCIPDNDKCCRPNLVCSRTHEWCKYVF-NH2; disulfide 2-17, 9-23, 16-30)",56,> 10000,
"CCC[C@@H]1NC(=O)CNC(=O)[C@H](CC(C)C)NC(=O)[C@@H](NC(=O)[C@@H](N)CC(=O)O)CSSC[C@@H]2NC(=O)[C@@H]3CSSC[C@@H](C(=O)N[C@@H](CCCCN)C(=O)N[C@@H](Cc4ccc(O)cc4)C(=O)N[C@H](C(=O)N[C@@H](Cc4ccccc4)C(N)=O)C(C)C)NC(=O)[C@H](Cc4c[nH]c5ccccc45)NC(=O)[C@H](CCC(=O)O)NC(=O)[C@H](Cc4c[nH]cn4)NC(=O)[C@H]([C@@H](C)O)NC(=O)[C@H](CCCNC(=N)N)NC(=O)[C@H](CO)NC(=O)[C@H](CSSC[C@H](NC(=O)[C@H](CCCCN)NC(=O)[C@H](CCCNC(=N)N)NC(=O)[C@H](CC(C)C)NC1=O)C(=O)N[C@@H]([C@@H](C)CC)C(=O)N1CCC[C@H]1C(=O)N[C@@H](CC(=O)O)C(=O)N[C@@H](CC(N)=O)C(=O)N[C@@H](CC(=O)O)C(=O)N[C@@H](CCCCN)C(=O)N3)NC(=O)[C@H](C(C)C)NC(=O)[C@H](CC(C)C)NC(=O)[C@H](CC(N)=O)NC(=O)[C@@H]1CCCN1C(=O)[C@H](CCCNC(=N)N)NC2=O [[Nva5;Leu6;Glu28]GpTx-1(1-34)] (H-DCLG[Nva]LRKCIPDNDKCCRPNLVCSRTHEWCKYVF-NH2; disulfide 2-17, 9-23, 16-30)",42,> 10000,
CCC[C@@H]1NC(=O)CNC(=O)[C@H](CC(C)C)NC(=O)[C@@H](NC(=O)[C@@H](N)CC(=O)O)CSSC[C@@H]2NC(=O)[C@@H]3CSSC[C@@H](C(=O)N[C@@H](CCCCN)C(=O)N[C@@H](Cc4ccc(O)cc4)C(=O)N[C@H](C(=O)N[C@@H](Cc4ccccc4)C(N)=O)C(C)C)NC(=O)[C@H](Cc4c[nH]c5ccccc45)NC(=O)[C@H](CCCCN)NC(=O)[C@H](Cc4c[nH]cn4)NC(=O)[C@H]([C@@H](C)O)NC(=O)[C@H](CCCNC(=N)N)NC(=O)[C@H](CO)NC(=O)[C@H](CSSC[C@H](NC(=O)[C@H](CCCCN)NC(=O)[C@H](CCCNC(=N)N)NC(=O)[C@H](CC(C)C)NC1=O)C(=O)N[C@@H]([C@@H](C)CC)C(=O)N1CCC[C@H]1C(=O)N[C@@H](CC(=O)O)C(=O)N[C@@H](CC(N)=O)C(=O)N[C@@H](CC(=O)O)C(=O)N[C@@H](CCCCN)C(=O)N3)NC(=O)[C@H](C(C)C)NC(=O)[C@H](CC(C)C)NC(=O)[C@H](CC(N)=O)NC(=O)[C@@H]1CCCN1C(=O)[C@H](CCCNC(=N)N)NC2=O [[Nva5;Leu6]GpTx-1(1-34)],83,> 10000,
CC[C@H](C)[C@@H]1NC(=O)[C@@H]2CSSC[C@@H]3NC(=O)[C@H](C(C)C)NC(=O)[C@H](CC(C)C)NC(=O)[C@H](CC(N)=O)NC(=O)[C@@H]4CCCN4C(=O)[C@H](CCCNC(=NC)NC)NC(=O)[C@H](CSSC[C@H](NC(=O)[C@@H](N)CC(=O)O)C(=O)N[C@@H](CC(C)C)C(=O)NCC(=O)N[C@@H](Cc4ccccc4)C(=O)N[C@@H](CCSC)C(=O)N[C@@H](CCCNC(=N)N)C(=O)N[C@@H](CCCCN)C(=O)N2)NC(=O)[C@H](CSSC[C@@H](C(=O)N[C@@H](CCCCN)C(=O)N[C@@H](Cc2ccc(O)cc2)C(=O)N[C@H](C(=O)N[C@@H](Cc2ccccc2)C(N)=O)C(C)C)NC(=O)[C@H](Cc2c[nH]c4ccccc24)NC(=O)[C@H](CCCCN)NC(=O)[C@H](Cc2c[nH]cn2)NC(=O)[C@H]([C@@H](C)O)NC(=O)[C@H](CCCNC(=N)N)NC(=O)[C@H](CO)NC3=O)NC(=O)[C@H](CCCCN)NC(=O)[C@H](CC(=O)O)NC(=O)[C@H](CC(N)=O)NC(=O)[C@H](CC(=O)O)NC(=O)[C@@H]2CCCN2C1=O [[SDMA18]GpTx-1(1-34)],,10000,6
